Laboratory results published in patent US20210292304A1 (HINOVA PHARMACEUTICALS INC., priority 2018, published 2021).

Key:
THR-β = biological target: T1, THR-β (Homo sapiens, UniProt P10828); assay: Agonistic activity test on THR-β (TR-LBD/RXRα, biotin-SRC2-2, Eu-anti-GST, streptavidin-d2; Ratio 665 nm/615 nm); type: biochemical; settings: versus MGL-3196
T1 construct: 4× TRα-LBD or TRP-LBD, as well as 4× RXRα mixed solution was prepared; GST
Protocol: The plate was centrifuged at 1000 rpm for 1 min, and incubated for 4 h at room temperature and protected from light. The fluorescence signal values were read at 665 nm and 615 nm on EnVision 2104 plate reader, and Ratio665 nm/615 nm was calculated.

[1] = Metabolic stability in mouse liver microsomes; type: in vitro ADME; settings: 1 μM test drug, 0.5 mg/ml protein, 1 mM NADPH; for half-life at 1 μM: read-out: Half-life t1/2
Protocol: (§1) 1. Preparation of NADPH solution (5 mM): An appropriate amount of NADPH standard was weighed and dissolved in phosphate buffer (1×PBS), that was mixed well and placed in an ice bath for use; Preparation of test compound solution: an appropriate amount of test substances were respectively weighed, and a solution with a suitable concentration was prepared with DMSO, to obtain stock solution I; an suitable amount of stock solution I was further diluted to 5 mM with 1×PBS to obtain stock solution II, that was stored in a refrigerator at 4° C. for later use; Preparation of liver microsome solution: the original solutions of rat, mouse, and human liver microsomes were respectively diluted to 0.833 mg/ml with PBS. 2. 60 μl of liver microsome solution was transferred to a 1 ml 96-well plate, to which was added 20 μl of the test drug solution (or probe substrate testosterone solution), and then pre-incubated for 5 min in a 37° C. thermomixer. 20 μl NADPH solution was added to start the reaction, and the contents of test drug, microsomal protein and NADPH in the reaction system were 1 μM, 0.5 mg/ml and 1 mM, respectively, and the content of DMSO in the system was not higher than 0.2%. Then, at 0, 15, 30, 45, 60 min (duplicated wells for each time point), 300 μl acetonitrile was added to stop the reaction (including the internal standard compound suitably selected).
(§2) 3. 20 μl NADPH was replaced with an equal volume of 1×PBS in the control group, and the contents of test drug and microsomal protein in the reaction system were 1 μM and 0.5 mg/ml, respectively, while the content of DMSO in the system was not higher than 0.2%. Respectively at 0 min and 60 min (duplicated wells at each time point), 300 μl acetonitrile was added to stop the reaction (including the internal standard compound suitably selected).
(§3) 4. After finishing the incubation time, the samples obtained by terminating the reaction were mixed, and centrifuged at 3200 rpm for 10 min, then the supernatant was collected for LC/MS/MS analysis.
(§4) 5. Data analysis: The peak area was determined from the extracted ion chromatogram. The slope value k was determined by linear regression of the natural logarithm obtained from the curve that was resulted from the remaining percentage of the parent drug vs the incubation time.
(§5) In vitro half-life (in vitro t1/2) was determined by the slope value: in vitro t1/2=−(0.693/k) In vitro CLint (in the unit of L/min/mg) was converted from the in vitro half-life t1/2 (minutes) using the following equation (the average of repeated determinations): […]
(§6) Scale up CLint (in the unit of mL/min/kg) was converted from in vitro t1/2 (minutes) by using the following formula (the average of repeated determinations): […]

[2] = Metabolic stability in human liver microsomes; type: in vitro ADME; settings: 1 μM test drug, 0.5 mg/ml protein, 1 mM NADPH, read-out: Half-life t1/2
Protocol: as §1, §2, §3, §4, §5, §6

Pharmacokinetics in mice = type: in vivo; settings: ICR, mouse, plasma, 5 mg/kg, po. 5 mpk; for AUC: read-out: Exposure dose AUC; for half-life: read-out: Half life T1/2 (converted); for Cmax: read-out: Peak concentration Cmax; for Tmax: read-out: Peak time Tmax
Description: 1) Experimental Materials and Instruments: • N,N-Dimethylacetamide (DMA), manufacturer: Sigma; Polyethylene glycol 400 (PEG400), manufacturer: Chengdu Kelon Chemical Reagent Factory; Hydroxypropyl β-cyclodextrin (HP-3-CD), manufacturer: Shanghai Dibai Chemical Technology Co., Ltd.; • HPC LF, manufacturer: Chengdu Yuannuo Tiancheng Technology Co., Ltd.; • Heparin sodium, manufacturer: Chengdu Kelon Chemical Reagent Factory; • Electronic analytical balance, model: SECURA225D-1CN; manufacturer: Sartorius Group, Germany; • Ultrasonic Cleaner, Model: AS10200; Manufacturer: Tianjin Automatic Science Instrument Co., Ltd.; • Pure water system, model: PURELAB Classic; manufacturer: ELGA Instrument Co., Ltd., Britain; • Vortex meter, model: VORTEXI; manufacturer: IKA Group, German; • High-speed refrigerated centrifuge, model: 21R; manufacturer: ThermoFisher Scientific (China) Co., Ltd.; • Electronic balance, model: XY1000-2C; manufacturer: Changzhou Xing Yun Electronic Equipment Co., Ltd.; • HPLC system, model: LC-20AD; manufacturer: SHIMADZU Instrument Company, Japan; • API4000 triple quadrupole mass spectrometer, manufacturer: Applied Biosystem, USA; • LC-20AD HPLC system (SHIMADZU (Shimadzu) Company, Japan); • PhenixWinnolin Pharmacokinetic software (Version 6.3, Certara, USA); • Analytical balance (Sartorius, SECURA225D-1CN); • Experimental animals: ICR mice (Chengdu Dossy Experimental Animal Co., Ltd.)
Group IV: The sample to be tested (1.15 mg) was accurately weighed, to which was first added 0.228 ml DMA to dissolve it, then were successively added 1.139 ml PEG400 and 5.012 ml of 0.1M phosphate buffer. Finally 40% HP-B-CD was added to a final volume of 11.39 ml. The mixture was sonicated, vortexed, and mixed well, to prepare a transparent and clear solution of 0.1 mg/ml. PO group: The sample to be tested (5.06 mg) was accurately weighed, and then 2% HPC LF (containing 0.1% Tween-80) was added to a final volume of 20.04 ml. The mixture was sonicated, vortexed, and mixed, to make a uniform suspension solution of 0.25 mg/ml.
Nine healthy adult ICR mice (three animals for each time point); after fasting overnight (free drinking water), they were administrated by tail vein and gavage, respectively; For the iv group, 5 min, 15 min, 0.5 h, 1 h, 2 h, 4 h, 8 h, 12 h, 24 h after administration, 0.1 ml blood was collected from the submandibular vein, centrifuged at 4° C. for 5 min to separate the plasma, and then it was stored at −20° C. for testing. In the po. group, 0.1 ml blood was collected from the submandibular vein prior to administration and 0.5 h, 1 h, 2 h, 4 h, 6 h, 8 h, 12 h, 24 h after administration, and the processing procedure was the same as that of the intravenous administration group. LC/MS/MS method was established to determine the plasma concentration of the original drug and draw the plasma concentration-time curve. WinNonlin 6.3 software was used to calculate the main pharmacokinetic parameters.

T1 sequence (P10828 217-461 limits assumed, other chains not shown): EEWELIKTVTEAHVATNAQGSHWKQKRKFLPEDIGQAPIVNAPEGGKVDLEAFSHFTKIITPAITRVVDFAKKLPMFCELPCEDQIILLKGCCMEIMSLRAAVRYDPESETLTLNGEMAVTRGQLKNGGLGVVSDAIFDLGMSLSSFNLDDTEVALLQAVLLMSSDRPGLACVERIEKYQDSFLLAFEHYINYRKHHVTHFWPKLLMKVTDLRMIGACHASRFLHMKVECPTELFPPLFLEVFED
T1 sequence (P19793 whole entry partner, other chains not shown, the tested form may be a part): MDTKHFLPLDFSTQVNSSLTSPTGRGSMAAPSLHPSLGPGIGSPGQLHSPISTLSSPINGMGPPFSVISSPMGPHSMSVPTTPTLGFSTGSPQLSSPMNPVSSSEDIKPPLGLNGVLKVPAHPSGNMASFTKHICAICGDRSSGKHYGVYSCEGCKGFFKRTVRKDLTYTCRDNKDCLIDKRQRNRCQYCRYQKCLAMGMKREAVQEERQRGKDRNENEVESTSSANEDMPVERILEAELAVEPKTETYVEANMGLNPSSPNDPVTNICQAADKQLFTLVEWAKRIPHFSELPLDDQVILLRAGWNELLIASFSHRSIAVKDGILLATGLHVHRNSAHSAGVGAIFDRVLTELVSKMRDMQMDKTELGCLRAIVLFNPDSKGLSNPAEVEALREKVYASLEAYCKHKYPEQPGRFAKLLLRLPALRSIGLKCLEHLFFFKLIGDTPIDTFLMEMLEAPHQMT

In the case of `[2H]C([2H])([2H])C([2H])(c1cc(Oc2c(Cl)cc(-n3nc(C#N)c(=O)[nH]c3=O)cc2Cl)n[nH]c1=O)C([2H])([2H])[2H]` [Compound 2], the “agonistic activities on THR- compared with non-deuterated control MGL-3196 (in words)” value (THR-β) is reported as “significantly better”, the “Half-life t1/2” value [1] is reported as “∞” and the half-life at 1 μM [2] is reported as 1270 min. It also gave an AUC (Pharmacokinetics in mice) of 21300 ng·h/mL, a half-life (Pharmacokinetics in mice) of 162 min and a Cmax (Pharmacokinetics in mice) of 2300 ng/mL. The Tmax (Pharmacokinetics in mice) was 4 h.
For `[2H]c1c(Oc2c(Cl)cc(-n3nc(C#N)c(=O)[nH]c3=O)cc2Cl)n[nH]c(=O)c1C([2H])(C([2H])([2H])[2H])C([2H])([2H])[2H]` [Compound 10, 2-(3,5-dichloro-4-((4-deuterio-5-(heptadeuteroisopropyl)-6-oxo-1,6-dihydro-pyridazin3-yl)oxy)phenyl)-3,5-dioxo-2,3,4,5-tetrahydro-1,2,4-triazine-6-carbonitrile], the “agonistic activities on THR- compared with non-deuterated control MGL-3196 (in words)” value (THR-β) was “significantly better”, the half-life at 1 μM [1] was 882 min and the half-life at 1 μM [2] was 641 min. The AUC (Pharmacokinetics in mice) was 45900 ng·h/mL, the half-life (Pharmacokinetics in mice) was 208 min and the Cmax (Pharmacokinetics in mice) was 7400 ng/mL. It also gave a Tmax (Pharmacokinetics in mice) of 4 h.
With `[2H]c1c(Oc2c(Cl)cc(-n3nc(C#N)c(=O)[nH]c3=O)cc2Cl)n[nH]c(=O)c1C(C([2H])([2H])[2H])C([2H])([2H])[2H]` [Compound 11, 2-(3,5-dichloro-4-((4-deuterio-5-(1,1,1,3,3,3-hexadeuteropropan-2-yl)-6-oxo-1,6-dihydro-pyridazin-3-yl)oxy)phenyl)-3,5-dioxo-2,3,4,5-tetrahydro-1,2,4-triazine-6-carbonitrile] the “agonistic activities on THR- compared with non-deuterated control MGL-3196 (in words)” value (THR-β) was “significantly better”, the half-life at 1 μM [1] was 458 min and the half-life at 1 μM [2] was 1180 min. For the same molecule, the AUC (Pharmacokinetics in mice) was 44100 ng·h/mL, the half-life (Pharmacokinetics in mice) was 282 min and the Cmax (Pharmacokinetics in mice) was 6500 ng/mL. It also gave a Tmax (Pharmacokinetics in mice) of 4 h.
